We go through 1 compound from US12559720B2, “Mobilization and collection of peripheral blood hematopoietic stem cells and lymphocytes from deceased donors” (The Regents of the University of California, priority 2018, dated 2026).

For one data set, the system named is PB HSC's / CD34+ cells. Conditions: cited from earlier work.
In data set [1] the test system is CD34+ cells mobilized from bone marrow into peripheral blood. Briefly: First working embodiment: single-dose plerixafor mobilization in a deceased donor, apheresis, then CD34+ isolation.

In the case of `c1cc(CN2CCCNCCNCCCNCC2)ccc1CN1CCCNCCNCCCNCC1` [plerixafor, 1-{[4-(1,4,8,11-tetrazacyclotetradec-1-ylmethyl)phenyl]methyl}-1,4,8,11 tetrazacyclotetradecane], in the data set on PB HSC's / CD34+ cells (after administration), the “peak onset of action” value was 6 to 10 h. For the same compound, the “fraction of healthy donors who fail to produce desired numbers of CD34+ cells/kg” value in the data set on PB HSC's / CD34+ cells (single agent, standard dose 0.24 mg/kg, subcutaneously or intravenously) was “⅓”. Moreover, the “tolerability / organ toxicity” value in the data set on PB HSC's / CD34+ cells (single subcutaneous dose) was “well tolerated with no major organ toxicity”. For the same compound, in data set [1] (Leukopak Product), the “% CD34+” value worked out at 0.87%, the “% viability” value was 99.5%, the TNC is 1.49E+10 and the “Total CD34+ (= % CD34+/100 x TNC)” value was 1.29E+08. This compound also yielded a TNC/mL in data set [1] (Leukopak Product, single sc dose plerixafor, apheresis started 8 hours after dose, 24 liters processed) of 3.23E+07. In addition, in data set [1] (Positive (CD34) fraction), the “% CD34+” value was 95%, the “% viability” value is 95%, the TNC worked out at 1.22E+08 and the TNC/mL stood at 2.60E+06. In addition, the “Total CD34+ (= % CD34+/100 x TNC)” value in data set [1] (Positive (CD34) fraction) amounted to 1.16E+08. The “whole body CT scans, routine hematology and serum chemistry panels before and after the procedure” value in data set [1] (deceased donor, single dose plerixafor) is reported as “remained stable”. For the same compound, the “tolerability of the procedure (vital signs, oxygenation, urine output)” value in data set [1] (deceased donor, single sc dose plerixafor (0.24 kg/mg), 8 hours apheresis) was “tolerated the procedure well”. The “viable CD34+ cells isolated” value in data set [1] (first working embodiment) is on record as “more than 1.0×10^8 cells”. Moreover, in data set [1] (first working embodiment, after isolation), the “purity of isolated CD34+ cells” value is 90-95%.
